Data on 12 compounds can be found in patent US20050101595A1, “N-containing cycloalkyl-substituted amino-thiazole derivatives and pharmaceutical compositions for inhibiting cell proliferation and methods for their use” (PFIZER INC., priority 2003, published 2005).

Experiment [1] deals with HCT-116 cell line. The experiment can be described thus: Inhibition of cell growth, tetrazolium salt (MTT) assay. The note with it: for HCT-116 % Inhibition at 0.25 μM: 0.25 μM compound; for IC50: Homo sapiens, HCT-116, 120 h, MTT, three to five days, read-out: HCT-116 IC50. It counts as cell-based. In short, it runs like this: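 Growth inhibition by MTT reduction at 540 nm (0.2 mg/mL, 4 h at 37° C, formazan dissolved in DMSO), normalized to cells given only 0.5% v/v DMSO. HCT-116 cultures in McCoy's 5A were dosed 4 h post-plating and kept three to five days at 37° C, 5% CO2.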

Experiment [2] concerns the target human CDK4 and genetically truncated (1-264) cyclin D3 (Homo sapiens, UniProt P11802). The experiment can be described thus: Inhibition of CDK4/Cyclin D Retinoblastoma Kinase Activity. Type of experiment: biochemical. The note with it: for Ki: apparent Ki, CDK4/truncated cyclin D3, Rb fragment substrate, 25 μM ATP. A digest of the protocol:
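The enzyme complex (5 nM), expressed in co-infected insect cells, was incubated with recombinant Rb fragment, 25 μM radiolabelled ATP and 2% DMSO at 30 °C. Reactions were stopped with EDTA after 20 minutes, or 60 minutes for tight-binding inhibitors. Apparent Ki values came from competitive inhibition fits.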

For experiment [3], the target named is CDK2/Cyclin A (Homo sapiens, UniProt P24941). The experiment can be described thus: Inhibition of CDK2/Cyclin A Retinoblastoma Kinase Activity. To be noted: for CDK2 % Inhibition At 0.03 μM: Table 2; for Ki: apparent Ki, CDK2/proteolyzed cyclin A, Rb fragment substrate, 25 μM ATP. It counts as biochemical. In short, it runs like this: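 CDK2 (10 or 19 nM), insect-cell expressed, gel-filtration purified with truncated cyclin A; Rb fragment substrate; 25 μM ATP; 10 mM HEPES pH 7.4, 10 mM MgCl2; 30° C, 60 or 75 min; EDTA stop; phosphocellulose/nitrocellulose capture, phosphorimager. % inhibition vs DMSO control, no-enzyme background subtracted.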

[4] abbreviates: 0.1 μM compound, HCT-116, Table 4.
Setting [5] is: 0.1 μM compound, HCT-116, Table 3.

Each structure is given as a SMILES string. Where a name gives a salt, the structure may show the parent alone. Read-outs that look alike come from different tables or passages of the source.

human CDK4 and genetically truncated (1-264) cyclin D3, sequence (P11802 whole entry, the tested form may be a part): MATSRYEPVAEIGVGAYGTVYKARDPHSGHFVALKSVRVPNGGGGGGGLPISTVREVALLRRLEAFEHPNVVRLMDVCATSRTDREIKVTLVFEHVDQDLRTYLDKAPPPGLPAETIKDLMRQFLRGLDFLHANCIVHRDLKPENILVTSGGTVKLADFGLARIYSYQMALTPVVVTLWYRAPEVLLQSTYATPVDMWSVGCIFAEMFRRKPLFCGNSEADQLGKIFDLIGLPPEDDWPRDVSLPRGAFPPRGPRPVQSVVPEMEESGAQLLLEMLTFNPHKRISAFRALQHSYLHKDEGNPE
human CDK4 and genetically truncated (1-264) cyclin D3, sequence (P30281 1-264 partner): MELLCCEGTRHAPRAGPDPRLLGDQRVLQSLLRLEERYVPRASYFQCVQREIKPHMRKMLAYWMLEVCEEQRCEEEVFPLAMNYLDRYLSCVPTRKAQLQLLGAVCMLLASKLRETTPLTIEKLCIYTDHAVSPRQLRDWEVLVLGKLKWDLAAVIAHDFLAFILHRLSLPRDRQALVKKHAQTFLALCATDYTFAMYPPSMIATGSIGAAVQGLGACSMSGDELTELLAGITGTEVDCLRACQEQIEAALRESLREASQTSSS

For the compound `Nc1nc(NC2CCN(C(=O)OCc3ccc([N+](=O)[O-])cc3)CC2)sc1C(=O)c1c(F)cccc1F` [Example Q85], in experiment [1] (setting [4]), the “HCT-116 % Inhibition at 0.1 μM” value was determined as 1%. In addition, the “HCT-116 % Inhibition at 0.25 μM” value in experiment [1] (HCT-116, Table 4) was 31%. In addition, the “CDK4 % Inhibition at 0.03 μM” value in experiment [2] (0.03 μM compound, Table 4) is reported as 55%. In addition, the “CDK2 % Inhibition at 0.03 μM” value in experiment [3] (0.03 μM compound, Table 4) is on record as 42%.
For the compound `Nc1nc(NC2CCN(C(=O)Nc3ccccc3)CC2)sc1C(=O)c1c(F)cccc1F` [Example O3], the “HCT-116 % Inhibition at 0.25 μM” value in experiment [1] (HCT-116, Table 2) turned out to be 0%. Besides, in experiment [2] (0.03 μM compound, Table 2), the “CDK4 % Inhibition at 0.03 μM” value is on record as 6%. Besides, the “CDK2 % Inhibition At 0.03 μM” value in experiment [3] (0.03 μM compound) worked out at 34%.
On to `COc1cc(NC(=O)N2CCC(Nc3nc(N)c(C(=O)c4c(F)cccc4F)s3)CC2)cc(OC)c1` [Example O45], for which the “HCT-116 % Inhibition at 0.25 μM” value in experiment [1] (HCT-116, Table 2) turned out to be 32%. In addition, the “CDK4 % Inhibition at 0.03 μM” value in experiment [2] (0.03 μM compound, Table 2) stood at 17%. Besides, the “CDK2 % Inhibition At 0.03 μM” value in experiment [3] (0.03 μM compound) is reported as 35%.
For `Cn1nc(-c2ccc(S(=O)(=O)N3CCC(Nc4nc(N)c(C(=O)c5c(F)cccc5F)s4)CC3)s2)cc1C(F)(F)F` [Example P44], the “HCT-116 % Inhibition at 0.1 μM” value in experiment [1] (setting [5]) stood at 0%. In addition, in experiment [1] (HCT-116, Table 3), the “HCT-116 % Inhibition at 0.25 μM” value worked out at 25%. For the same compound, in experiment [2] (0.03 μM compound, Table 3), the “CDK4 % Inhibition at 0.03 μM” value is listed as 62%. Moreover, the “CDK2 % Inhibition at 0.03 μM” value in experiment [3] (0.03 μM compound, Table 3) is recorded as 55%.
For `CN(C)c1ccc(N=Nc2ccc(S(=O)(=O)N3CCC(Nc4nc(N)c(C(=O)c5c(F)cccc5F)s4)CC3)cc2)cc1` [Example P18], the “HCT-116 % Inhibition at 0.1 μM” value in experiment [1] (setting [5]) is recorded as 20%. Further, the “HCT-116 % Inhibition at 0.25 μM” value in experiment [1] (HCT-116, Table 3) was 36%. In experiment [2] (0.03 μM compound, Table 3), the “CDK4 % Inhibition at 0.03 μM” value was found to be 6%. The “CDK2 % Inhibition at 0.03 μM” value in experiment [3] (0.03 μM compound, Table 3) was −20%.
Consider `COC(=O)c1cc(NC(=O)N2CCC(Nc3nc(N)c(C(=O)c4c(F)cccc4F)s3)CC2)cc(C(=O)OC)c1` [Example O59], for which the “HCT-116 % Inhibition at 0.25 μM” value in experiment [1] (HCT-116, Table 2) is reported as 32%. Further, the “CDK4 % Inhibition at 0.03 μM” value in experiment [2] (0.03 μM compound, Table 2) stood at 7%. Also, in experiment [3] (0.03 μM compound), the “CDK2 % Inhibition At 0.03 μM” value is recorded as 28%.
In the case of `C[C@@H]1CN(Cc2ccc(S(=O)(=O)N3CCC(Nc4nc(N)c(C(=O)c5c(F)cccc5F)s4)CC3)cc2)C[C@H](C)N1` [Example J10, 1-{4-Amino-2-{1-[4-(3,5-dimethyl-piperazin-1-ylmethyl)-benzenesulfonyl]-piperidin-4-ylamino}-thiazol-5-yl)-1-(2,6-difluoro-phenyl)-methanone Hydrochloride Salt.], the figures for the IC50 in experiment [1] (first HCT-116 column (c4)) and in experiment [1] (second HCT-116 column (c5)) were 0.16 µM and 2.9 µM, respectively. For the same compound, the figures for the Ki in experiment [2] and in experiment [3] were 0.00039 µM and 0.0017 µM, respectively.
In the case of `Nc1nc(NC2CCN(C(=O)Nc3ccccc3C(F)(F)F)CC2)sc1C(=O)c1c(F)cccc1F` [Example O10], the “HCT-116 % Inhibition at 0.25 μM” value in experiment [1] (HCT-116, Table 2) was 0%. In experiment [2] (0.03 μM compound, Table 2), the “CDK4 % Inhibition at 0.03 μM” value was 5%. Further, the “CDK2 % Inhibition At 0.03 μM” value in experiment [3] (0.03 μM compound) amounted to 28%.
With `Cc1ccc(S(=O)(=O)N2CCC(Nc3nc(N)c(C(=O)c4c(F)cccc4F)s3)CC2)cc1` [Example F15, {4-Amino-2-[1-(toluene-4-sulfonyl)-piperidin-4-ylamino]-thiazol-5-yl}-(2,6-difluoro-phenyl)-methanone], the IC50 was 0.41 µM in experiment [1] (first HCT-116 column (c4)) and 1.2 µM in experiment [1] (second HCT-116 column (c5)). Further, the Ki in experiment [2] came out at 0.0034 µM; in experiment [3], 0.0028 µM.
For the compound `Nc1nc(NC2CCN(C(=O)c3cccc(Cl)c3)CC2)sc1C(=O)c1c(F)cccc1F` [Example R132], in experiment [1] (HCT-116 cells, at 0.1 μM), the “HCT-116 % Inhibition at 0.1 μM” value is 15%. Moreover, the “HCT-116 5 Inhibition at 0.25 μM” value in experiment [1] (HCT-116 cells, at 0.25 μM) stood at 60. Besides, the “CDK4 % Inhibition at 0.03 μM” value in experiment [2] (at 0.03 μM) is 55%. Also, the “CDK2 % Inhibition at 0.03 μM” value in experiment [3] (at 0.03 μM) was found to be 28%.
In the case of `Nc1nc(NC2CCN(C(=O)c3ccccc3C(F)(F)F)CC2)sc1C(=O)c1c(F)cccc1F` [Example Q16], the “HCT-116 % Inhibition at 0.1 μM” value in experiment [1] (setting [4]) is 11%. Also, the “HCT-116 % Inhibition at 0.25 μM” value in experiment [1] (HCT-116, Table 4) is given as 50%. The “CDK4 % Inhibition at 0.03 μM” value in experiment [2] (0.03 μM compound, Table 4) is 19%. In addition, the “CDK2 % Inhibition at 0.03 μM” value in experiment [3] (0.03 μM compound, Table 4) is on record as −12%.
For `C[C@@H](O)CN(C)c1ccc(S(=O)(=O)N2CCC(Nc3nc(N)c(C(=O)c4c(F)cccc4F)s3)CC2)cn1` [Example G17, 1-[4-Amino-2-(1-{6-[((R)-2-hydroxy-propyl)-methyl-amino]-pyridine-3-sulfonyl}-piperidine-4-ylamino)-thiazol-5-yl]-1-(2,6-difluoro-phenyl)-methanone Trifluoroacetic Acid Salt], the values for the IC50 in experiment [1] (first HCT-116 column (c4)) and in experiment [1] (second HCT-116 column (c5)) were 0.36 µM and 0.9 µM, respectively. Moreover, the Ki in experiment [2] came out at 0.0014 µM; in experiment [3], 0.00055 µM.

The term IC50 denotes the concentration that inhibits the measured activity by half.
